The values that follow come from article PMC12136037, “Type II kinase inhibitors that target Parkinson’s disease–associated LRRK2” (Science Advances, 2025).

Experiment in all cases: DSF 100 kinase selectivity screen;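 also: compound tested at 20 µM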
Holding throughout (type): binding

In assay [1] the target is T1, ~100 representative kinases (Homo sapiens, UniProt P22830).
T1 construct: Recombinant protein kinase domains with a concentration of 2 μM
T1 sequence (P22830 55-423): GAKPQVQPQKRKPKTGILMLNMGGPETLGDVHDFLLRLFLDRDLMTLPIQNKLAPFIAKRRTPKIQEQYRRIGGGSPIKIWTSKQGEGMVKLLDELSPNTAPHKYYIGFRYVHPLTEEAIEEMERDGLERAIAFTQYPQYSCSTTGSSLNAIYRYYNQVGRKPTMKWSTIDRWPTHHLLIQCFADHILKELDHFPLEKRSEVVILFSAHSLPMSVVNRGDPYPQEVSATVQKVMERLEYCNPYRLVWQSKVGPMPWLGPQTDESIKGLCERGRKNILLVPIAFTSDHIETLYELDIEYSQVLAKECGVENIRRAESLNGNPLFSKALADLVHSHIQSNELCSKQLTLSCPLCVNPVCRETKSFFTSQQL
To be noted: protein FECH; average of three replicates. Put shortly:
(§1)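 Each kinase domain, at 2 μM, is mixed with 20 μM test compound and SYPRO Orange in Hepes (20 mM, pH 7.5) with 500 mM NaCl. Temperature is then raised at 3°C/min and fluorescence-monitored unfolding yields the melting temperature change, ΔTm in degrees Celsius.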

The target in assay [2] is T2, ~100 representative kinases (Homo sapiens, UniProt Q9H2G2).
T2 construct: Recombinant protein kinase domains with a concentration of 2 μM
T2 sequence (Q9H2G2 whole entry, the tested form may be a part): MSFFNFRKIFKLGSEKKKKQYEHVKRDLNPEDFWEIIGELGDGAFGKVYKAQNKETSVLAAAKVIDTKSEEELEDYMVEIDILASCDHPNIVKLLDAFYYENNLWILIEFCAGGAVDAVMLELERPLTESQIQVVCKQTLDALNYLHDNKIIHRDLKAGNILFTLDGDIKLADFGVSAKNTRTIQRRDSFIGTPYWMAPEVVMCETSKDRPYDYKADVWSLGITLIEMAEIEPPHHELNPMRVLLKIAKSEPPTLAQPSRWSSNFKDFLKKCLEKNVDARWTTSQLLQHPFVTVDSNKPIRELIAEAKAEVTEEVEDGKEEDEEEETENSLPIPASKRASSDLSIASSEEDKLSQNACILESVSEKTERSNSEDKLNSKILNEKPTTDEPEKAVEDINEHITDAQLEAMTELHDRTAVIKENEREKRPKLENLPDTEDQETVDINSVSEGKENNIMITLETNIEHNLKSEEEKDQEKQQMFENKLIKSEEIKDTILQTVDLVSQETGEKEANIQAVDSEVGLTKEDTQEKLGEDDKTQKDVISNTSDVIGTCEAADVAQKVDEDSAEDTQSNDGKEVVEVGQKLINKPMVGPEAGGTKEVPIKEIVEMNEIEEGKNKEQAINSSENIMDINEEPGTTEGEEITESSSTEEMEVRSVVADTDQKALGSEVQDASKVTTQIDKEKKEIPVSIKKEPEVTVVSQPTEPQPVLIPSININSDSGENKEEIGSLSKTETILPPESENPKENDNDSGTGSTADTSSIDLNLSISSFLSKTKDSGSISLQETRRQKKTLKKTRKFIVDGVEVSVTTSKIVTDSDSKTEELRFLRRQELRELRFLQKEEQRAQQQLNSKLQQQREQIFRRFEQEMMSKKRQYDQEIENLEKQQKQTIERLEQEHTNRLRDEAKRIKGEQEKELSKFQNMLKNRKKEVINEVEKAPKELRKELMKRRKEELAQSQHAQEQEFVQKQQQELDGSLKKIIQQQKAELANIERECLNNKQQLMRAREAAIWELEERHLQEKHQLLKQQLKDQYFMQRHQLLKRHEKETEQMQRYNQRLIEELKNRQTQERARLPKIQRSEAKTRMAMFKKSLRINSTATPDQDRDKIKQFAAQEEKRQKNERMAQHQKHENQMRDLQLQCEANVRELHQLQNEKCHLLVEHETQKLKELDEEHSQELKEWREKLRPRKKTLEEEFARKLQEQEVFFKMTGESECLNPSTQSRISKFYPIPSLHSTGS
To be noted: Protein SLK; DSF; average of three replicates. The method, boiled down:
as §1

Assay [3] deals with T3, ~100 representative kinases (Homo sapiens, UniProt Q6PHR2).
T3 construct: Recombinant protein kinase domains with a concentration of 2 μM
T3 sequence (Q6PHR2 1-472): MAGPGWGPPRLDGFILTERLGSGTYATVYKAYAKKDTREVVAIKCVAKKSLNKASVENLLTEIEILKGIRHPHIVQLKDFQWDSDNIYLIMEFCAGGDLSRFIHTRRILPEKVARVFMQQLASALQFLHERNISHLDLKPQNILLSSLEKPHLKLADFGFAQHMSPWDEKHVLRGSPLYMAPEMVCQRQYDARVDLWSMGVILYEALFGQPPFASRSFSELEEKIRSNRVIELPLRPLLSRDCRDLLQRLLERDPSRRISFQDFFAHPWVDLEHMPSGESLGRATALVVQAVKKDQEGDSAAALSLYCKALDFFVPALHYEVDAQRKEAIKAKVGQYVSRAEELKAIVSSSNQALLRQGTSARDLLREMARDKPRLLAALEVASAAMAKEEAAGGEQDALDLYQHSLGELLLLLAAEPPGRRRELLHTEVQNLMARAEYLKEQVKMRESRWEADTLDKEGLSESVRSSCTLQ
Conditions: Protein ULK3; DSF; average of three replicates. Put shortly: as §1

In assay [4] the target is T4, ~100 representative kinases (Homo sapiens, UniProt P29317).
T4 construct: Recombinant protein kinase domains with a concentration of 2 μM
T4 sequence (P29317 24-976): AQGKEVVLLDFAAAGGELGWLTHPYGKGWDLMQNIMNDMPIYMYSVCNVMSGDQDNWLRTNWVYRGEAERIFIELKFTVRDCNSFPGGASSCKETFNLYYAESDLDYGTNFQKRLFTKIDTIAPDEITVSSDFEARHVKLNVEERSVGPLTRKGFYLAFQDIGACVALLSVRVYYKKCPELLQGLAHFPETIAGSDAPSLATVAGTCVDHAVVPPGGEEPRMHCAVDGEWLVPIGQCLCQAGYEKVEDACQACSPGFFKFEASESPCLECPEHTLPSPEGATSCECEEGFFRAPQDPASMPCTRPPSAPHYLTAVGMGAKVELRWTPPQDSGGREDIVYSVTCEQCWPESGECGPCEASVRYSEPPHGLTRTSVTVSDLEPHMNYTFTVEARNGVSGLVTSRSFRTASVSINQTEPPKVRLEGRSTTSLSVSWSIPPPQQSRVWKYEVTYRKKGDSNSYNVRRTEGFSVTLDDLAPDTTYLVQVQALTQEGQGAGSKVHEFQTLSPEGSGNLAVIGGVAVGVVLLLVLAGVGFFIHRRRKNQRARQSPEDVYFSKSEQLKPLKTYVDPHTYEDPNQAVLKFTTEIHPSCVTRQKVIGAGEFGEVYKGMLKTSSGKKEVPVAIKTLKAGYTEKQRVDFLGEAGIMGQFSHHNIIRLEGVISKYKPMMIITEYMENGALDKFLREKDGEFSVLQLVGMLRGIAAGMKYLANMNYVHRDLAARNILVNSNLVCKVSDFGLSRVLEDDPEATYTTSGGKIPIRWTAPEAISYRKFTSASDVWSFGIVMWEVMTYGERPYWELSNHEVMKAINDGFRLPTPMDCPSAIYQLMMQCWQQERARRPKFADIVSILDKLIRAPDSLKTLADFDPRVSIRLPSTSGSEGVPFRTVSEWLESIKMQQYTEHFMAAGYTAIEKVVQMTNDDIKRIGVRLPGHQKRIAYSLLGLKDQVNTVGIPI
To be noted: Protein EPHA2; average of three replicates. Put shortly:
as §1

The target of assay [5] is T5, ~100 representative kinases (Homo sapiens, UniProt P45985).
T5 construct: Recombinant protein kinase domains with a concentration of 2 μM
T5 sequence (P45985 1-399): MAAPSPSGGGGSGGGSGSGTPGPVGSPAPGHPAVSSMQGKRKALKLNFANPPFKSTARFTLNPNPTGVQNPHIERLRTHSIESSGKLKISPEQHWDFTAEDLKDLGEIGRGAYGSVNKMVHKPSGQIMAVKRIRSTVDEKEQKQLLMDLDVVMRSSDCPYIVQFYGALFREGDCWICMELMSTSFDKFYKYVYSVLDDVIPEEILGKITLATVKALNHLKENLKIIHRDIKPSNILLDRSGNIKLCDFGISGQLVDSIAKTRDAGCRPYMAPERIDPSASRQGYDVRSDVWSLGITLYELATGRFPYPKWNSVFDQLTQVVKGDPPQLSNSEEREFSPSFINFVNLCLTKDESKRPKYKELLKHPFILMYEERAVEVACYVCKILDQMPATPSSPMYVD
To be noted: protein MAP2K4; average of three replicates. Put shortly: as §1

Assay [6] addresses T6, ~100 representative kinases (Homo sapiens, UniProt O95747).
T6 construct: Recombinant protein kinase domains with a concentration of 2 μM
Conditions: protein OSR1; average of three replicates. Put shortly:
as §1

Assay [7] addresses T7, ~100 representative kinases (Homo sapiens, UniProt O00444).
T7 construct: Recombinant protein kinase domains with a concentration of 2 μM
T7 sequence (O00444 1-970): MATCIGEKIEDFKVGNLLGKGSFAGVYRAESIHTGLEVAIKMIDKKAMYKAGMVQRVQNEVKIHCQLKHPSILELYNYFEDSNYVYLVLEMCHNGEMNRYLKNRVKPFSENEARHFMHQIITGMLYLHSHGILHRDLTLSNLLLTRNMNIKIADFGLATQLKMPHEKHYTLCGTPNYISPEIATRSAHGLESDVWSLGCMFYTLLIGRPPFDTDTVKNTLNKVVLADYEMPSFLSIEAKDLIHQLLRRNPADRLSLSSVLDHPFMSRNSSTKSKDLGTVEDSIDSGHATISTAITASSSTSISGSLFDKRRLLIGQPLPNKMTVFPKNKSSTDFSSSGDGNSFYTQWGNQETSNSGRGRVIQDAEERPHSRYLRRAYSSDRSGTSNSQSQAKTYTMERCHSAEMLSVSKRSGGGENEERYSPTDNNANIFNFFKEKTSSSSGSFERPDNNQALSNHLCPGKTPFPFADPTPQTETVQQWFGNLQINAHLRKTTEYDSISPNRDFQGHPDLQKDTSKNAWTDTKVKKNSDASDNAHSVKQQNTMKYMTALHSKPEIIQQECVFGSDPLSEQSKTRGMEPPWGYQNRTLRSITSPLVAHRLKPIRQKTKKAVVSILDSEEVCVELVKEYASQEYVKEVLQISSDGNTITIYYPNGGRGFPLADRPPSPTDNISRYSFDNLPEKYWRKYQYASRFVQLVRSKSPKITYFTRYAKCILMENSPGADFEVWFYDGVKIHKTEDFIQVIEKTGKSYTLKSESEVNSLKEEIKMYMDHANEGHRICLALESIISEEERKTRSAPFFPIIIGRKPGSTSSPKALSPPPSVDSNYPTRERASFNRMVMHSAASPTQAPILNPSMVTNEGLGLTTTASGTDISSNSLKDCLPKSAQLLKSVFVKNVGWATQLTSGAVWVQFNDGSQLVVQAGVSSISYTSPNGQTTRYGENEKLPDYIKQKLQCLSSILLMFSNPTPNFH
Conditions: protein PLK4; average of three replicates. The method, boiled down: as §1

T6 sequence (O95747 whole entry, the tested form may be a part): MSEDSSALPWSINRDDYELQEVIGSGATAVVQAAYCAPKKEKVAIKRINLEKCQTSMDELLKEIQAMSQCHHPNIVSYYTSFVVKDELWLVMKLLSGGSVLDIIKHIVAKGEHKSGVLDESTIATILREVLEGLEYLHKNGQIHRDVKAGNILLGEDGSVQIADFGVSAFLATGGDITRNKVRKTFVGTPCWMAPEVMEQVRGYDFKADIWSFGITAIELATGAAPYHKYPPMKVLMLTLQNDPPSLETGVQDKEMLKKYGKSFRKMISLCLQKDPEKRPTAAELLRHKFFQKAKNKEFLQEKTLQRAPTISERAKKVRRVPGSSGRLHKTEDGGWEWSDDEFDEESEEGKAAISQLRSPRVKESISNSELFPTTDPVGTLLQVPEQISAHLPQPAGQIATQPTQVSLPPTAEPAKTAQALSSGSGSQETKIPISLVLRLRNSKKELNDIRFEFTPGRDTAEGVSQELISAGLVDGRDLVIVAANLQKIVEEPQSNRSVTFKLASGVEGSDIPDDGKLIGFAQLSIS

Take `O=C(Nc1cccc(-c2c[nH]c3ncnc(N4CCOCC4)c23)c1)C1(C(=O)Nc2ccc(F)c(Br)c2)CC1` [Compound 19]: the dTm in assay [1] is given as -5.01 K; in assay [2], 8.05 K; in assay [3], 5.66 K; in assay [4], 4.87 K; in assay [5], 6.16 K; in assay [6], 1.49 K. For the same compound, in assay [7], the dTm was 0.00 K.

Take `COc1cc(NC(=O)C2(C(=O)Nc3cccc(-c4c[nH]c5ncnc(N6CCOCC6)c45)c3)CC2)ccc1F` [Compound 21]: the dTm in assay [1] was -0.18 K; in assay [2], 6.44 K; in assay [3], 8.22 K; in assay [4], 2.31 K; in assay [5], 6.42 K; in assay [6], 1.79 K. This compound yielded a dTm in assay [7] of 10.46 K.

As for `Cc1cc(NC(=O)C2(C(=O)Nc3cccc(-c4c[nH]c5ncnc(N6CCOCC6)c45)c3)CC2)ccc1F` [Compound 20], the dTm in assay [1] is on record as 2.57 K; in assay [2] it was 8.94 K; in assay [3], 10.21 K; in assay [4], 6.64 K; in assay [5], 7.49 K; in assay [6] it was 1.31 K. The dTm in assay [7] came out at 12.28 K.

For `O=C(Nc1cccc(-c2c[nH]c3ncnc(N4CCOCC4)c23)c1)C1(C(=O)Nc2ccc(F)cc2F)CC1` [Compound 23], the dTm is given as 0.12 K in assay [1]; 4.42 K in assay [2]; 8.50 K in assay [3]; 4.60 K in assay [4]; 5.20 K in assay [5]; 1.41 K in assay [6]. The dTm in assay [7] is on record as 7.20 K.

For `Cc1ccc(-n2nc(C(C)(C)C)cc2NC(=O)Nc2cccc(-c3c[nH]c4ncnc(N5CCOCC5)c34)c2)cc1` [Compound 29], the dTm in assay [1] is given as -10.48 K; in assay [2], 13.65 K; in assay [3] it was 7.43 K; in assay [4], 10.91 K; in assay [5], 5.30 K; in assay [6], 0.52 K. Further, in assay [7], the dTm was found to be 4.74 K.

Regarding `Cc1ccc(NC(=O)C2(C(=O)Nc3cccc(-c4c[nH]c5ncnc(N6CCOCC6)c45)c3)CC2)cc1` [Compound 14], the dTm in assay [1] amounted to 0.67 K; in assay [2] it was 5.25 K; in assay [3] it was 7.72 K; in assay [4] it was 7.05 K; in assay [5], 5.95 K; in assay [6], 1.54 K. The compound further gave a dTm in assay [7] of 7.55 K.
